≈ marks a conversion by molar mass, not a printed value. Marks after values point to notes of the source that are not given here.
Tests used:
[1] = tested on: Candida albicans ATCC10231; assay: Broth microdilution MIC/MMC; type: cell-based; conditions: for MIC: Candida albicans ATCC10231, 48 h, 30°C, read-out: MIC
Method: (§1) The antimicrobial activity was performed against five bacterial and two fungal species. The selected microorganisms were the Gram-positive (Staphylococcus aureus ATCC25923, methicillin-resistant Staphylococcus aureus 03 (MRSA03), and methicillin-resistant Staphylococcus aureus 04 (MRSA04)) and Gram-negative (Pseudomonas aeruginosa ATCC27853 and Escherichia coli S2(1)) bacteria and yeast strains of Candida albicans ATCC10231 and Cryptococcus neoformans H99. These microorganisms were taken from our laboratory collection. The fungal and bacterial strains were conserved on Sabouraud Dextrose Agar (SDA, Conda, Madrid, Spain) and nutrient agar (NA, Conda) slants, respectively.
(§2) The antimicrobial activity was investigated by determining the minimum inhibitory concentrations (MICs), minimum bactericidal concentrations (MBC), and minimum fungicidal concentrations (MFCs). MICs of extracts/compounds were monitored using the broth microdilution method. Dimethyl sulfoxide (DMSO, Fisher Chemicals) was used to dissolve the test sample to produce a stock solution that was twofold serially diluted in Mueller-Hinton broth (MHB) for bacteria and Sabouraud Dextrose Broth (SDB) for fungi to obtain a concentration range of 4096 to 0.25 μg/mL. One hundred microliters of each concentration was introduced into a well (96-well microplate) containing 90 μL of SDB or MHB and 10 μL of inoculum (at 1 × 10^6 CFU/mL for bacteria and 1 × 10^5 spores/mL for yeasts) which were added to obtain a final concentration range of 2048 to 0.125 μg/mL. Plates were covered and incubated on the shaker at 37°C, 30°C, and 30°C during 24 h, 48 h, and 72 h for bacteria, Candida albicans, and Cryptococcus neoformans, respectively. The MICs were visually assessed after the incubation period and were considered the lowest sample concentration that inhibits the growth or the visual growth of the organism.
(§3) The positive controls were oxacillin (Sigma-Aldrich, Steinheim, Germany) for bacteria and nystatin (Sigma-Aldrich, Steinheim, Germany) for yeasts, and the negative control was broth with 20 μL of DMSO. The assay was carried out in triplicate.

[2] = tested on: Cryptococcus neoformans H99; assay: Broth microdilution MIC/MMC; type: cell-based; conditions: for MFC / MMC/MIC: Cryptococcus neoformans H99; for MIC: Cryptococcus neoformans H99, 72 h, 30°C, read-out: MIC
Method: as §1, §2, §3

Escherichia coli S2(1) = assay: Broth microdilution MIC/MMC; type: cell-based; conditions: for MIC: 24 h, 37°C, read-out: MIC
Method: as §1, §2, §3

[3] = tested on: Pseudomonas aeruginosa ATCC27853; assay: Broth microdilution MIC/MMC; type: cell-based; conditions: for MBC / MMC/MIC: Pseudomonas aeruginosa ATCC27853; for MIC: Pseudomonas aeruginosa ATCC27853, 24 h, 37°C, read-out: MIC
Method: as §1, §2, §3

[4] = tested on: Staphylococcus aureus ATCC25923; assay: Broth microdilution MIC/MMC; type: cell-based; conditions: for MBC / MMC/MIC: Staphylococcus aureus ATCC25923; for MIC: Staphylococcus aureus ATCC25923, 24 h, 37°C, read-out: MIC
Method: as §1, §2, §3

[5] = tested on: methicillin-resistant Staphylococcus aureus 03 (MRSA03); assay: Broth microdilution MIC/MMC; type: cell-based; conditions: for MBC / MIC: Staphylococcus aureus; for MIC: MRSA03, 24 h, 37°C, read-out: MIC
Method: as §1, §2, §3

[6] = tested on: methicillin-resistant Staphylococcus aureus 04 (MRSA04); assay: Broth microdilution MIC/MMC; type: cell-based; conditions: for MBC / MIC: Staphylococcus aureus; for MIC: MRSA04, 24 h, 37°C, read-out: MIC
Method: as §1, §2, §3

[7] = tested on: tested bacteria and yeasts; assay: Broth microdilution MIC/MMC, summary over all strains; type: cell-based; conditions: for antimicrobial activity class of pure compounds by cutoff points: against specific microorganism, cutoff points of ref 33; for antimicrobial activity: against the tested microorganisms; for MIC: read-out: MIC (range over the tested microorganisms)
Method: as §1, §2, §3

[8] = DPPH free radical scavenging assay; conditions: for DPPH free radical scavenging activity (EC50): mean ± SD
Method: The free radical scavenging activity of extracts and compounds was evaluated according to the described method. The EC50 (μg/mL), which is the amount of sample necessary to inhibit by 50% the absorbance of free radical DPPH, was calculated. Vitamin C was used as a standard control. All the analyses were carried out in triplicate and repeated three times.

[9] = Gallic acid equivalent antioxidant capacity (GEAC) assay; conditions: for Gallic acid equivalent antioxidant capacity (GEAC): ABTS radical, 420 nm, 240 s, mean ± SD
Method: The GEAC test was performed as described previously with some slight modifications. The laccase was purified from Sclerotinia sclerotiorum according to the described protocol. 20 μL of laccase (1 mM stock solution), 20 μL of test sample, 10 μL of ABTS (2,2′-azino-bis(3-ethylbenzothiazoline-6-sulfonic acid) (74 mM stock solution), and 950 μL of acetate buffer (pH = 5.0, 100 mM) were added in a quartz cuvette. The concentrations of the samples in the assay mixture were 800, 400, 200, 100, and 10 μg/mL for the extracts and 200, 100, 50, 25, and 12.5 μg/mL for the isolated compounds. The content of the generated ABTS^●+ radical was measured at 420 nm after 240 s reaction time and was converted to gallic acid equivalents by the use of a calibration curve (Pearson's correlation coefficient: r = 0.998) constructed with 0, 4, 10, 14, 28, 56, and 84 μM gallic acid standards rather than Trolox. Experiments were done in triplicate and repeated three times with similar results.

CC1(C)CC(O)C2(C)CCC3(C)C(=CCC4C5(C)CCC(OC6OC(C(=O)O)C(O)C(O)C6O)C(C)(CO)C5CCC43C)C2C1 [compound 10, 3-O-β-D-glucuronopyranosylsoyasapogenol B]
MFC ([1]; Candida albicans ATCC10231): > 256 µg/mL | MIC [1]: > 256 µg/mL | MFC [2]: > 256 µg/mL | MIC [2]: 256 µg/mL (≈ 403 µM) | MBC (Escherichia coli S2(1)): > 256 µg/mL | MIC (Escherichia coli S2(1)): 256 µg/mL (≈ 403 µM) | MBC [3]: > 256 µg/mL | MIC [3]: 256 µg/mL (≈ 403 µM) | MBC [4]: > 256 µg/mL | MIC [4]: 256 µg/mL (≈ 403 µM) | MBC ([5]; MRSA03): > 256 µg/mL | MIC [5]: > 256 µg/mL | MBC ([6]; MRSA04): > 256 µg/mL | MIC [6]: > 256 µg/mL | antimicrobial activity class of pure compounds by cutoff points [7]: low/not active | antimicrobial activity [7]: low activity | MIC [7]: ≥ 256 µg/mL | activity in DPPH assay [8]: inactive | activity in TEAC assay [9]: inactive

CO[C@@H]1O[C@H](CO)[C@@H](O)[C@H](O)[C@H]1O [compound 7, 1-methyl-β-D-glucopyranoside]
MFC ([1]; Candida albicans ATCC10231): > 256 µg/mL | MIC [1]: > 256 µg/mL | MFC [2]: > 256 µg/mL | MIC [2]: > 256 µg/mL | MBC (Escherichia coli S2(1)): > 256 µg/mL | MIC (Escherichia coli S2(1)): > 256 µg/mL | MBC [3]: > 256 µg/mL | MIC [3]: > 256 µg/mL | MBC [4]: > 256 µg/mL | MIC [4]: > 256 µg/mL | MBC ([5]; MRSA03): > 256 µg/mL | MIC [5]: > 256 µg/mL | MBC ([6]; MRSA04): > 256 µg/mL | MIC [6]: > 256 µg/mL | antimicrobial activity class of pure compounds by cutoff points [7]: not active | antimicrobial activity [7]: not active | MIC [7]: > 256 µg/mL | activity in DPPH assay [8]: inactive | activity in TEAC assay [9]: inactive

COc1ccc(-c2coc3cc(OC4OC(CO)C(O)C(O)C4O)cc(O)c3c2=O)cc1 (stereo not shown) [compound 6, sissotrin]
MFC ([1]; Candida albicans ATCC10231): > 256 µg/mL | MIC [1]: 64 µg/mL (≈ 143 µM) | MFC [2]: 256 µg/mL (≈ 573 µM) | MMC/MIC [2]: 8 | MIC [2]: 32 µg/mL (≈ 71.7 µM) | MBC (Escherichia coli S2(1)): 128 µg/mL (≈ 287 µM) | MMC/MIC (Escherichia coli S2(1)): 2 | MIC (Escherichia coli S2(1)): 64 µg/mL (≈ 143 µM) | MBC [3]: 256 µg/mL (≈ 573 µM) | MMC/MIC [3]: 2 | MIC [3]: 128 µg/mL (≈ 287 µM) | MBC [4]: 128 µg/mL (≈ 287 µM) | MMC/MIC [4]: 2 | MIC [4]: 64 µg/mL (≈ 143 µM) | MBC ([5]; MRSA03): > 256 µg/mL | MIC [5]: 256 µg/mL (≈ 573 µM) | MBC ([6]; MRSA04): > 256 µg/mL | MIC [6]: 256 µg/mL (≈ 573 µM) | antimicrobial activity class of pure compounds by cutoff points [7]: moderate/low | MIC [7]: 32 to 256 µg/mL (≈ 71.7 to 573 µM) | DPPH free radical scavenging activity (EC50) [8]: 7.13 ± 0.97^e μg/mL | Gallic acid equivalent antioxidant capacity (GEAC) [9]: 72.96 ± 1.54^i μg/mL

COc1ccc(-c2coc3cc(O)cc(O)c3c2=O)cc1 [compound 1, biochanin A]
MFC ([1]; Candida albicans ATCC10231): 64 µg/mL (≈ 225 µM) | MMC/MIC ([1]; Candida albicans ATCC10231): 2 | MIC [1]: 32 µg/mL (≈ 113 µM) | MFC [2]: 32 µg/mL (≈ 113 µM) | MMC/MIC [2]: 1 | MIC [2]: 32 µg/mL (≈ 113 µM) | MBC (Escherichia coli S2(1)): 64 µg/mL (≈ 225 µM) | MMC/MIC (Escherichia coli S2(1)): 2 | MIC (Escherichia coli S2(1)): 32 µg/mL (≈ 113 µM) | MBC [3]: 64 µg/mL (≈ 225 µM) | MMC/MIC [3]: 2 | MIC [3]: 32 µg/mL (≈ 113 µM) | MBC [4]: 32 µg/mL (≈ 113 µM) | MMC/MIC [4]: 1 | MIC [4]: 32 µg/mL (≈ 113 µM) | MMC/MIC ([5]; MRSA03): 2 | MBC ([5]; MRSA03): 128 µg/mL (≈ 450 µM) | MIC [5]: 64 µg/mL (≈ 225 µM) | MMC/MIC ([6]; MRSA04): 2 | MBC ([6]; MRSA04): 128 µg/mL (≈ 450 µM) | MIC [6]: 64 µg/mL (≈ 225 µM) | antimicrobial activity class of pure compounds by cutoff points [7]: moderate | MIC [7]: 32 to 64 µg/mL (≈ 113 to 225 µM) | DPPH free radical scavenging activity (EC50) [8]: 4.87 ± 0.43^d μg/mL | Gallic acid equivalent antioxidant capacity (GEAC) [9]: 101.77 ± 1.24^d μg/mL
